The record followed here is patent publication US9579378B2, “Combinations and uses thereof” (MORPHOSYS AG, priority 2012, dated 2017).

In experiment [1] the test system is Human Multiple Myeloma NCI-H929 cells. The experiment can be described thus: Orthotopic osteolysis model, microCT analysis of tibia (bone lysis). Particulars: for Total Bone Lysis: microCT, day 42, vehicle control = 100.0, Melphalan 4 mg/kg i.v., MOR03087 3 mg/kg i.p., 3x weekly for 6 weeks, data of FIG. 1. The experiment is classed as in vivo, SCID mice.
For experiment [2] the test system is unchanged. The experiment can be described thus: M-Protein concentration in sera (ELISA) on day 42 of the orthotopic osteolysis model. Format: in vivo, SCID mice. Particulars: sera at termination (day 42), versus mice that received solvent diluent only, FIG. 3.

For `N[C@@H](Cc1ccc(N(CCCl)CCCl)cc1)C(=O)O` [Melphalan], the “Bone lysis (microCT, FIG. 2)” value in experiment [1] (Melphalan 8 mg/kg alone, i.v. 3x weekly for 6 weeks, day 42) is “reduced bone lysis completely”. In addition, the “Total Bone Lysis” value in experiment [1] came out at 61.3%. The “Protein M concentration in sera” value in experiment [2] is “significantly reduced”.

B1: MOR03087: anti-CD38 antibody whose amino acid sequence and DNA sequence is provided in FIG. 4; disclosed in U.S. Pat. No. 8,088,896 (antibody, listed as Homo sapiens, V domains shown)
VH: QVQLVESGGGLVQPGGSLRLSCAASGFTFSSYYMNWVRQAPGKGLEWVSGISGDPSNTYYADSVKGRFTISRDNSKNTLYLQMNSLRAEDTAVYYCARDLPLVYTGFAYWGQGTLVTVSS
VL: DIELTQPPSVSVAPGQTARISCSGDNLRHYYVYWYQQKPGQAPVLVIYGDSKRPSGIPERFSGSNSGNTATLTISGTQAEDEADYYCQTYTGGASLVFGGGTKLTVLGQ
modifications: MOR202 Variable Heavy Domain; MOR202 Variable Light Domain
As to B1, the “Total Bone Lysis” value in experiment [1] is 27.6%. For the same molecule, the “Protein M concentration in sera” value in experiment [2] is “significantly reduced”.
